Measurements taken from patent US20140038989A1, “TETRAHYDROPYRAZOLO [1,5-A] PYRIMIDINE AS ANTI-TUBERCULOSIS COMPOUNDS” (Glaxo Group Limited, priority 2011, published 2014).
Converted amounts (≈) assume the structure as drawn.

Each molecule was assayed on Mycobacterium tuberculosis H37Rv (assay: Mycobacterium tuberculosis H37Rv Inhibition Assay (Whole Cell Assay)). Conditions: ATCC 25618 / H37Rv, H37Rv strain (ATCC25618), Middlebrook 7H9, six days at 37° C., resazurin fluorescence after 48 hours.
Assay type: cell-based
For `CCc1ccc([C@H]2C[C@@H](C(F)(F)F)n3ncc(C(=O)NCc4ccc(C)cn4)c3N2)cc1` (relative stereo) [Example 20, Cis-5-(4-ethylphenyl)-N-((5-methylpyridin-2-yl)methyl)-7-(trifluoromethyl)-4,5,6,7-tetrahydropyrazolo[1,5-a]pyrimidine-3-carboxamide], the MIC was 1 to 2 µM (≈ 0.443 to 0.887 µg/mL). `Cc1ccc(C2CC(C(F)F)n3ncc(C(=O)NCc4ccccc4C(F)(F)F)c3N2)cc1` (centres unmarked) [Example 55, 7-(difluoromethyl)-5-(p-tolyl)-N-(2-(trifluoromethyl)benzyl)-4,5,6,7-tetrahydropyrazolo[1,5-a]pyrimidine-3-carboxamide] was tested, and the MIC was > 2 µM. For `CCc1ccc([C@H]2C[C@@H](C(C)(C)C)n3ncc(C(=O)NCc4ccc5c(c4)OCO5)c3N2)cc1` (relative stereo) [Example 36, Cis-N-(benzo[d][1,3]-dioxol-5-ylmethyl)-7-(tert-butyl)-5-(4-ethylphenyl)-4,5,6,7-tetrahydropyrazolo[1,5-a]pyrimidine-3-carboxamide], the MIC was 1 to 2 µM (≈ 0.461 to 0.921 µg/mL). Work on `CCc1ccc([C@H]2C[C@@H](C(F)(F)F)n3ncc(C(=O)NCc4cccn4C)c3N2)cc1` (relative stereo) [Example 10, Cis-5-(4-ethylphenyl)-N-[(1-methyl-1H-pyrrol-2-yl)methyl]-7-(trifluoromethyl)-4,5,6,7-tetrahydropyrazolo[1,5-a]pyrimidine-3-carboxamide] yielded an MIC of 1 to 2 µM (≈ 0.431 to 0.863 µg/mL). In the case of `Cc1ccc([C@H]2C[C@@H](C(F)(F)F)n3ncc(C(=O)NCc4ccc(C(F)(F)F)cc4)c3N2)cc1` (relative stereo) [Example 28, Cis-5-(p-tolyl)-7-(trifluoromethyl)-N-(4-(trifluoromethyl)benzyl)-4,5,6,7-tetrahydropyrazolo[1,5-a]pyrimidine-3-carboxamide], the MIC was 1 to 2 µM (≈ 0.482 to 0.965 µg/mL). `CCc1ccc([C@H]2C[C@@H](C(F)(F)F)n3ncc(C(=O)NCc4ccc(OC)nc4)c3N2)cc1` [Example 102, (5R,7S)-5-(4-ethylphenyl)-N-((6-methoxypyridin-3-yl)methyl)-7-(trifluoromethyl)-4,5,6,7-tetrahydropyrazolo[1,5-a]pyrimidine-3-carboxamide] was tested, and the MIC was ≤ 1 µM. For `CCc1ccc([C@H]2C[C@@H](C(F)(F)F)n3ncc(C(=O)NCc4ccc(F)c(C)c4)c3N2)cc1` (relative stereo) [Example 63, Cis-5-(4-ethylphenyl)-N-(4-fluoro-3-methylbenzyl)-7-(trifluoromethyl)-4,5,6,7-tetrahydropyrazolo[1,5-a]pyrimidine-3-carboxamide], the MIC was ≤ 1 µM. In the case of `CCc1ccc([C@H]2C[C@@H](C(F)(F)F)n3ncc(C(=O)NCc4ccc(C)c(Cl)c4)c3N2)cc1` (relative stereo) [Example 9, Cis-N-(3-chloro-4-methylbenzyl)-5-(4-ethylphenyl)-7-(trifluoromethyl)-4,5,6,7-tetrahydropyrazolo[1,5-a]pyrimidine-3-carboxamide], the MIC was ≤ 1 µM. With `Cc1ccc([C@H]2C[C@@H](C(F)(F)F)n3ncc(C(=O)NCc4ccc(F)c(F)c4)c3N2)cc1` (relative stereo) [Example 31, Cis-N-(3,4-difluorobenzyl)-5-(p-tolyl)-7-(trifluoromethyl)-4,5,6,7-tetrahydropyrazolo[1,5-a]pyrimidine-3-carboxamide] the MIC was ≤ 1 µM. With `Cc1ccc([C@H]2C[C@@H](C(F)(F)F)n3ncc(C(=O)NCc4ccc(N(C)C)cc4)c3N2)cc1` (relative stereo) [Example 49, Cis-N-(4-(dimethylamino)benzyl)-5-(p-tolyl)-7-(trifluoromethyl)-4,5,6,7-tetrahydropyrazolo[1,5-a]pyrimidine-3-carboxamide] the MIC was > 2 µM. With `CCc1ccc([C@H]2C[C@@H](C(C)C)n3ncc(C(=O)NCc4ccc(OC)cc4)c3N2)cc1` (relative stereo) [Example 71, Cis-5-(4-ethylphenyl)-7-isopropyl-N-(4-methoxybenzyl)-4,5,6,7-tetrahydropyrazolo[1,5-a]pyrimidine-3-carboxamide] the MIC was ≤ 1 µM. Molecule `CCc1ccc([C@H]2C[C@@H](C(F)(F)F)n3ncc(C(=O)NCc4ccc(Cl)cn4)c3N2)cc1` (relative stereo) [Example 75, Cis-N-((5-chloropyridin-2-yl)methyl)-5-(4-ethylphenyl)-7-(trifluoromethyl)-4,5,6,7-tetrahydropyrazolo[1,5-a]pyrimidine-3-carboxamide] has an MIC of 1 to 2 µM (≈ 0.464 to 0.928 µg/mL). In the case of `CCc1ccc([C@H]2C[C@@H](C(F)(F)F)n3ncc(C(=O)NCc4ccc(F)cc4)c3N2)cc1` (relative stereo) [Example 58, Cis-5-(4-ethylphenyl)-N-(4-fluorobenzyl)-7-(trifluoromethyl)-4,5,6,7-tetrahydropyrazolo[1,5-a]pyrimidine-3-carboxamide], the MIC was ≤ 1 µM. For `CCc1ccc(C2CC(C(F)(F)F)n3ncc(C(=O)NCc4cccs4)c3N2)cc1` (centres unmarked) [Example 40, 5-(4-ethylphenyl)-N-(thiophen-2-ylmethyl)-7-(trifluoromethyl)-4,5,6,7-tetrahydropyrazolo[1,5-a]pyrimidine-3-carboxamide], the MIC was ≤ 1 µM. With `CCc1ccc([C@@H]2C[C@H](C(F)(F)F)n3ncc(C(=O)NCc4ccco4)c3N2)cc1` (single isomer, unassigned) [Example 7b] the MIC was > 2 µM. `CCc1ccc([C@H]2C[C@@H](C(F)(F)F)n3ncc(C(=O)NCc4cccc(OC)c4)c3N2)cc1` (relative stereo) [Example 8, Cis-5-(4-ethylphenyl)-N-{[3-(methyloxy)phenyl]methyl}-7-(trifluoromethyl)-4,5,6,7-tetrahydropyrazolo[1,5-a]pyrimidine-3-carboxamide] was tested, and the MIC was ≤ 1 µM. `CCc1ccc([C@H]2C[C@@H](C(F)(F)F)n3ncc(C(=O)NCc4ncc(F)cc4F)c3N2)cc1` (relative stereo) [Example 70, Cis N-((3,5-difluoropyridin-2-yl)methyl)-5-(4-ethylphenyl)-7-(trifluoromethyl)-4,5,6,7-tetrahydropyrazolo[1,5-a]pyrimidine-3-carboxamide] was tested, and the MIC was ≤ 1 µM. With `CCc1ccc([C@H]2C[C@@H](C(F)(F)F)n3ncc(C(=O)NCc4ccc(C)o4)c3N2)cc1` (relative stereo) [Example 4, Cis-5-(4-ethylphenyl)-N-((5-methylfuran-2-yl)methyl)-7-(trifluoromethyl)-4,5,6,7-tetrahydropyrazolo[1,5-a]pyrimidine-3-carboxamide] the MIC was ≤ 1 µM. `CCc1ccc([C@H]2C[C@@H](C(F)(F)F)n3ncc(C(=O)NCc4ccc(OC)c(OC)c4)c3N2)cc1` (relative stereo) [Example 47, Cis-N-(3,4-dimethoxybenzyl)-5-(4-ethylphenyl)-7-(trifluoromethyl)-4,5,6,7-tetrahydropyrazolo[1,5-a]pyrimidine-3-carboxamide] was tested, and the MIC was > 2 µM. `Cc1ccc([C@H]2C[C@@H](C(F)(F)F)n3ncc(C(=O)NCc4ccc5c(c4)OCCO5)c3N2)cc1` (relative stereo) [Example 50, Cis-N-((2,3-dihydrobenzo[b][1,4]dioxin-6-yl)methyl)-5-(p-tolyl)-7-(trifluoromethyl)-4,5,6,7-tetrahydropyrazolo[1,5-a]pyrimidine-3-carboxamide] was tested, and the MIC was > 2 µM. For `CCc1ccc([C@H]2C[C@@H](C(F)(F)F)n3ncc(C(=O)NCc4cccc(C)c4)c3N2)cc1` (relative stereo) [Example 3, Cis-5-(4-ethylphenyl)-N-(3-methylbenzyl)-7-(trifluoromethyl)-4,5,6,7-tetrahydropyrazolo[1,5-a]pyrimidine-3-carboxamide], the MIC was ≤ 1 µM. `Cc1ccc(C2CC(C(F)(F)F)n3ncc(C(=O)NCc4ccccc4Cl)c3N2)cc1` (centres unmarked) [Example 52, N-(2-chlorobenzyl)-5-(p-tolyl)-7-(trifluoromethyl)-4,5,6,7-tetrahydropyrazolo[1,5-a]pyrimidine-3-carboxamide] was tested, and the MIC was > 2 µM. With `CCc1ccc([C@H]2C[C@@H](C(F)(F)F)n3ncc(C(=O)NCc4cccc(C(F)(F)F)c4)c3N2)cc1` (relative stereo) [Example 14, Cis-5-(4-ethylphenyl)-7-(trifluoromethyl)-N-{[3-(trifluoromethyl)phenyl]methyl}-4,5,6,7-tetrahydropyrazolo[1,5-a]pyrimidine-3-carboxamide] the MIC was 1 to 2 µM (≈ 0.496 to 0.993 µg/mL). For `CCc1ccc([C@H]2C[C@@H](C(F)F)n3ncc(C(=O)NCc4ccc5c(c4)OCO5)c3N2)cc1` (relative stereo) [Example 34, Cis-N-(benzo[d][1,3]dioxol-5-ylmethyl)-7-(difluoromethyl)-5-(4-ethylphenyl)-4,5,6,7-tetrahydropyrazolo[1,5-a]pyrimidine-3-carboxamide], the MIC was ≤ 1 µM. `CCc1ccc([C@H]2C[C@@H](C(F)(F)F)n3ncc(C(=O)NCc4ccc(F)c(C)n4)c3N2)cc1` (relative stereo) [Example 77, Cis-5-(4-ethylphenyl)-N-((5-fluoro-6-methylpyridin-2-yl)methyl)-7-(trifluoromethyl)-4,5,6,7-tetrahydropyrazolo[1,5-a]pyrimidine-3-carboxamide] was tested, and the MIC was 1 to 2 µM (≈ 0.461 to 0.923 µg/mL). For `CCc1ccc([C@H]2C[C@@H](C(F)(F)F)n3ncc(C(=O)NCc4cnc(OC)c(F)c4)c3N2)cc1` [Example 104, (5R,7S)-5-(4-ethylphenyl)-N-((5-fluoro-6-methoxypyridin-3-yl)methyl)-7-(trifluoromethyl)-4,5,6,7-tetrahydropyrazolo[1,5-a]pyrimidine-3-carboxamide], the MIC was ≤ 1 µM. For `CCc1ccc([C@H]2C[C@@H](C(F)(F)F)n3ncc(C(=O)NCc4ccccc4OC)c3N2)cc1` (relative stereo) [Example 45, Cis-5-(4-ethylphenyl)-N-(2-methoxybenzyl)-7-(trifluoromethyl)-4,5,6,7-tetrahydropyrazolo[1,5-a]pyrimidine-3-carboxamide], the MIC was > 2 µM. For `CCc1ccc([C@H]2C[C@@H](C(F)(F)F)n3ncc(C(=O)NCc4ccncc4)c3N2)cc1` (relative stereo) [Example 48, Cis-5-(4-ethylphenyl)-N-(pyridin-4-ylmethyl)-7-(trifluoromethyl)-4,5,6,7-tetrahydropyrazolo[1,5-a]pyrimidine-3-carboxamide], the MIC was > 2 µM. `CCc1ccc([C@H]2C[C@@H](C(F)(F)F)n3ncc(C(=O)NCc4ccccc4)c3N2)cc1` (relative stereo) [Example 15, Cis-N-benzyl-5-(4-ethylphenyl)-7-(trifluoromethyl)-4,5,6,7-tetrahydropyrazolo[1,5-a]pyrimidine-3-carboxamide] was tested, and the MIC was ≤ 1 µM.
